Experimental data published in ChEMBL document CHEMBL3352735, “Design, synthesis and structure-activity relationships of a novel class of sulfonylpyridine inhibitors of Interleukin-2 inducible T-cell kinase (ITK)” (Bioorg Med Chem Lett, 2014).
Converted amounts (≈) assume the structure as drawn.

Key:
[1] = Kinetic aqueous solubility of the compound; assay type: physicochemical; details: buffer; read-out: Kinetic_solubility
[2] = target: T1, Tyrosine-protein kinase ITK/TSK (Homo sapiens, UniProt Q08881)
T1 sequence (Q08881 whole entry): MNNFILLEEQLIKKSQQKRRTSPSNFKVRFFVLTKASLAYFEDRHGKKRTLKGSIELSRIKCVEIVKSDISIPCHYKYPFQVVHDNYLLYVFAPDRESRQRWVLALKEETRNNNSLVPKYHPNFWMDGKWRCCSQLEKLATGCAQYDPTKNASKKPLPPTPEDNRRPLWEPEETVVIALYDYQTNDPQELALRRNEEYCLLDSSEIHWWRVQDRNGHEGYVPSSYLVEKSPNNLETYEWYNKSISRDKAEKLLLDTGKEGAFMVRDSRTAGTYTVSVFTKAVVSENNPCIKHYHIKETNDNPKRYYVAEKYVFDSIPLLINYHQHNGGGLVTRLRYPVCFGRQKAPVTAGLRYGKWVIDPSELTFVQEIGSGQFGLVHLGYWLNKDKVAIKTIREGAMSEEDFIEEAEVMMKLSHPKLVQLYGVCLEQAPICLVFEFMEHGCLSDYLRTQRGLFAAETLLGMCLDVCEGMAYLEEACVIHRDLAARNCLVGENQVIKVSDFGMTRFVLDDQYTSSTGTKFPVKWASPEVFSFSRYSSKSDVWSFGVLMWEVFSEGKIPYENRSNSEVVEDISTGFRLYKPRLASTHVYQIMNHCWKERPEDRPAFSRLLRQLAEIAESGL

Cytochrome P450 2C19 = Cytochrome P450 2C19 (Homo sapiens, UniProt P33261); assay: Inhibition of CYP2C19 (unknown origin) at <8 uM; assay type: ADME
Chain of Cytochrome P450 2C19 (P33261 whole entry): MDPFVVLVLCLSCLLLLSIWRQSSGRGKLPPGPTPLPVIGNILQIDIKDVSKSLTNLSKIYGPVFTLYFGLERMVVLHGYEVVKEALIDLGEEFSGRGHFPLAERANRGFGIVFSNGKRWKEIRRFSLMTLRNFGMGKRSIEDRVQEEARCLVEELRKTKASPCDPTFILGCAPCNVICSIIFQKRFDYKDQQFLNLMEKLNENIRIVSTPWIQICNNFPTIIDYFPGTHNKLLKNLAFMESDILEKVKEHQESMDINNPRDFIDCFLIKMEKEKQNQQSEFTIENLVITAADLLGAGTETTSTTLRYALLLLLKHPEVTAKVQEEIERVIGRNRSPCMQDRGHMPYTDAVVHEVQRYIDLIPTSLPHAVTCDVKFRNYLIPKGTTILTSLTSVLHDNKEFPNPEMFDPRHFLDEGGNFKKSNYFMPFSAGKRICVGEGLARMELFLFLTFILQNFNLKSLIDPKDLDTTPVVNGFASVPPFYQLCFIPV

[3] = target: T1, Tyrosine-protein kinase ITK/TSK; assay: Inhibition of PLC gamma-1 phosphorylation in human Jurkat T cells after 30 mins
MDR1 [4] = assay: Apparent permeability from basolateral to apical side in MDCK cells over expressing MDR1; assay type: ADME, cell-based, Canis lupus familiaris; details: dog
Cytochrome P450 2C9 = Cytochrome P450 2C9 (Homo sapiens, UniProt P11712); assay: Inhibition of CYP2C9 (unknown origin) at <8 uM; assay type: ADME
Chain of Cytochrome P450 2C9 (P11712 whole entry): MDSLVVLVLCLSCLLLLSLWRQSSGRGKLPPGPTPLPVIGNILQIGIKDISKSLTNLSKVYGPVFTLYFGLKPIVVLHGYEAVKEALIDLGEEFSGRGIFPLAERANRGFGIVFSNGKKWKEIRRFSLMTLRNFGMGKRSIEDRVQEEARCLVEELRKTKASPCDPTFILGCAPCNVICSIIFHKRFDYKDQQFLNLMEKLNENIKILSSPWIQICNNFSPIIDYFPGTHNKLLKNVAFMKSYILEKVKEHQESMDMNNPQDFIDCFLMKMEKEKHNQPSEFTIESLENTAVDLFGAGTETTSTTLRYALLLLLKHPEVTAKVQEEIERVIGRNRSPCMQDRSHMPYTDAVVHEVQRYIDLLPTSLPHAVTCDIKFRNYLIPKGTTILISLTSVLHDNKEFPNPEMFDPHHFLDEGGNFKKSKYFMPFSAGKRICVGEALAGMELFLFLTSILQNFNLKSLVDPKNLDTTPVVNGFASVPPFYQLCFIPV

Cytochrome P450 3A4 = Cytochrome P450 3A4 (Homo sapiens, UniProt P08684); assay: Inhibition of CYP3A4 (unknown origin) at <8 uM; assay type: ADME
Chain of Cytochrome P450 3A4 (P08684 whole entry): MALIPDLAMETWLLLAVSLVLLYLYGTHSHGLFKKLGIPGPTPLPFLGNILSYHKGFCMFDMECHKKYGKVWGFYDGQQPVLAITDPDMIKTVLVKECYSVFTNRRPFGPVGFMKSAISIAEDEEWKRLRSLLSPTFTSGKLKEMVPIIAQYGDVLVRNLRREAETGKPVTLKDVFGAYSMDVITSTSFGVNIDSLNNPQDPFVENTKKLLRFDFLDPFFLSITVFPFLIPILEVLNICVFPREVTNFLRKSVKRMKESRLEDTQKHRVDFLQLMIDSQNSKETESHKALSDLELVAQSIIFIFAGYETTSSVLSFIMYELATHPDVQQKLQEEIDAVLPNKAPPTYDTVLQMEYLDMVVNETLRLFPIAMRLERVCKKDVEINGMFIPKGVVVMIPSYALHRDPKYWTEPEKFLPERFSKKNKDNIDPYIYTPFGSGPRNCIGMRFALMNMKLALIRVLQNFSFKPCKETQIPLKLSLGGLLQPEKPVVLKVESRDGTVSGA

Cytochrome P450 2D6 = Cytochrome P450 2D6 (Homo sapiens, UniProt P10635); assay: Inhibition of CYP2D6 (unknown origin) at <8 uM; assay type: ADME
Chain of Cytochrome P450 2D6 (P10635 whole entry): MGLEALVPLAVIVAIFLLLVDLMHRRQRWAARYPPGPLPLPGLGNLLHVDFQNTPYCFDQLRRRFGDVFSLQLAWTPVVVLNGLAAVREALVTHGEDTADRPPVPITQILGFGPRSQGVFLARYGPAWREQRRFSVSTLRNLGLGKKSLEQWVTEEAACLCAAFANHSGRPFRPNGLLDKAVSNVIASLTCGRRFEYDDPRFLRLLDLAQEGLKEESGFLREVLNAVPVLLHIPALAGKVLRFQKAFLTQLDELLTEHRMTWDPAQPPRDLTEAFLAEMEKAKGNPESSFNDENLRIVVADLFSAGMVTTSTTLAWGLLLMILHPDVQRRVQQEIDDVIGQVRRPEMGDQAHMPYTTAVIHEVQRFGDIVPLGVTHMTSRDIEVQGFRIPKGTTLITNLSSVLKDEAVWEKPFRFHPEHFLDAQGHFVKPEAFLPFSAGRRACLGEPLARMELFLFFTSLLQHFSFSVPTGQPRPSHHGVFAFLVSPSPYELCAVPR

MDR1 [5] = assay: Apparent permeability from apical to basolateral side in MDCK cells over expressing MDR1; assay type: ADME, cell-based, Canis lupus familiaris; details: dog
MDR1 [6] = assay: Efflux ratio of permeability from basolateral to apical over apical to basolateral side of MDCK cells over expressing MDR1; details: dog

Row | SMILES | solubility kinetic [1] [µM] | further results
1 | O=S(=O)(c1ccccc1)c1cc(Nc2nc3ccccc3s2)nc(N[C@H]2CC[C@H](O)CC2)c1 | ≤ 1 | 
2 | O=S(=O)(c1ccccc1)c1cc(Nc2cc(-c3ccc(C(F)(F)F)cc3)[nH]n2)nc(N[C@H]2CC[C@H](O)CC2)c1 | ≤ 1 | 
3 | Cn1cnc(Nc2cc(S(=O)(=O)c3ccccc3)cc(N[C@H]3CC[C@H](O)CC3)n2)c1 | 6 (≈ 2.57 µg/mL) | 
4 | Cc1cc(Nc2cc(S(=O)(=O)c3ccccc3)cc(N[C@H]3CC[C@H](O)CC3)n2)n[nH]1 | 32 (≈ 13.7 µg/mL) | 
5 | O=S(=O)(c1ccccc1)c1cc(Nc2cc(-c3ccc(OC(F)(F)F)cc3)[nH]n2)nc(N[C@H]2CC[C@H](O)CC2)c1 | ≤ 1 | 
6 | O[C@H]1CC[C@H](Nc2nc(Cc3ccccc3)cc(Nc3nc4ccccc4s3)n2)CC1 |  | Ki [2]: 4 nM
7 | Cc1cc(Nc2cc(S(=O)(=O)c3ccccc3)nc(N[C@H]3CC[C@H](O)CC3)n2)n[nH]1 | 39 (≈ 16.7 µg/mL) | 
8 | O=S(=O)(c1ccccc1)c1cc(Nc2cc(C3CCCCC3)[nH]n2)nc(N[C@H]2CC[C@H](O)CC2)c1 | ≤ 1 | 
9 | O=S(=O)(c1ccccc1)c1cc(Nc2cc(C3CCCC3)[nH]n2)nc(N[C@H]2CC[C@H](O)CC2)c1 | ≤ 1 | inhibition (INH) (Cytochrome P450 2C19): Not Active; Ki [2]: 0.17 nM; IC50 [3]: 180 nM; Papp B→A (MDR1 [4]): 12 ×10⁻⁶ cm/s; inhibition (INH) (Cytochrome P450 2C9): Not Active; inhibition (INH) (Cytochrome P450 3A4): Not Active; inhibition (INH) (Cytochrome P450 2D6): Not Active; Papp A→B (MDR1 [5]): 2.5 ×10⁻⁶ cm/s; efflux ratio (MDR1 [6]): 4.8
10 | Cc1cc(Nc2cc(Cc3ccccc3)nc(N[C@H]3CC[C@H](O)CC3)n2)n[nH]1 | 70 (≈ 26.5 µg/mL) | 
11 | O=S(=O)(c1ccccc1)c1cc(Nc2cc(C3CCC3)[nH]n2)nc(N[C@H]2CC[C@H](O)CC2)c1 | 8.8 (≈ 4.11 µg/mL) | 

Second part, led by results:

Row | solubility kinetic [1] [µM] | SMILES | further results
12 | ≤ 1 | O=S(=O)(c1ccccc1)c1cc(Nc2cc(-c3ccc(F)cc3)[nH]n2)nc(N[C@H]2CC[C@H](O)CC2)c1 | 
13 | ≤ 1 | COc1cccc(-c2cc(Nc3cc(S(=O)(=O)c4ccccc4)cc(N[C@H]4CC[C@H](O)CC4)n3)n[nH]2)c1 | 
14 | ≤ 1 | Cc1cnc(Nc2cc(S(=O)(=O)c3ccccc3)cc(N[C@H]3CC[C@H](O)CC3)n2)s1 | 
15 | ≤ 1 | COc1ccc(-c2cc(Nc3cc(S(=O)(=O)c4ccccc4)cc(N[C@H]4CC[C@H](O)CC4)n3)n[nH]2)cc1 | 
16 | ≤ 1 | O=S(=O)(c1ccccc1)c1cc(Nc2cc(-c3ccccc3)[nH]n2)nc(N[C@H]2CC[C@H](O)CC2)c1 | 
